Values after ≈ are worked out from the molar mass of the structure shown.
Experiments:
[1] = tested on: L1210 leukemia; assay: L1210 leukemia cell proliferation inhibition (Table 1, procedure of Li et al.); type: cell-based, mouse; details: drug concentration required to inhibit cell proliferation to 50% of untreated control cells; for IC50: Mus musculus, L1210, read-out: L1210 (IC50 μg/ml)
From the text: The biological activity of the compounds of this invention has been further confirmed using well known procedures against L1210 leukemia and the results set forth in Table I. The results were obtained using standard well known procedure (Li, L. H.; Kuentzel, S. L.; Murch, L. L.; Pschigoga, L. M.; and W. C. Krueger, “Comparative biological and biochemical effects of nogalamycin and its analogs on L1210 leukemia,” Cancer Res. 39:4816-4822 (1979)). The results are expressed as an IC50 which is the drug concentration required to inhibit cell proliferation to 50% of that of untreated control cells. Lower numbers indicated greater activity.

[2] = tested on: L1210 mouse leukemia carcinoma cells; assay: Cytotoxicity in L1210 mouse leukemia carcinoma cells in culture (IC90); type: cell-based
From the text: (§1) The biological activity of the 7-deoxy-7β,8β-methanotaxol compounds (Formula II) of the invention has been confirmed using well known procedures.

[3] = tested on: A2780 (human ovarian carcinoma) cells; assay: Cytotoxicity in A2780 (human ovarian carcinoma) cells in culture (IC90); type: cell-based
From the text: (§2) The biological activity of the 7-deoxy-7-halotaxol compounds (Formula III) of the invention has been confirmed using well known procedures.

[4] = tested on: tubulin; assay: In vitro tubulin polymerization assay after Gaskin et al.; type: biochemical; details: in vitro at 20° C.; for induction of tubulin polymerization in vitro: compared with taxol
From the text: as §1, §2

Structure (SMILES): CC(=O)O[C@H]1C(=O)[C@]2(C)C(F)C[C@H]3OC[C@@]3(OC(C)=O)[C@H]2[C@H](OC(=O)c2ccccc2)[C@]2(O)C[C@H](OC(=O)[C@H](OC(=O)OCC(Cl)(Cl)Cl)[C@@H](NC(=O)OC(C)(C)C)c3ccccc3)C(C)=C1C2(C)C (stereo partly shown) [Compound 13DA, N-Debenzoyl-N-(t-butyl)oxycarbonyl-2′-{[(2,2,2-trichloroethyl)oxy]carbonyl}-7-deoxy-7-fluorotaxol]
- L1210 (IC50 μg/ml) [1]: 0.015 µg/mL

Structure (SMILES): CC(=O)O[C@H]1C(=O)[C@@]2(C)C(F)C[C@H]3OC[C@@]3(OC(C)=O)[C@H]2[C@H](OC(=O)c2ccccc2)[C@]2(O)C[C@H](OC(=O)[C@H](O)[C@@H](NC(=O)NC(C)(C)C)c3ccccc3)C(C)=C1C2(C)C (stereo partly shown) [Compound 28, N-debenzoyl-N-(t-butyl)aminocarbonyl-7-deoxy-7-fluoro-taxol]
- L1210 (IC50 μg/ml) [1]: 0.0055 µg/mL

Structure (SMILES): CC(=O)OC1C(=O)C2(C)C(F)CC3OCC3(OC(C)=O)C2C(OC(=O)c2ccccc2)C2(O)CC(OC(=O)C(OC(=O)OCC(Cl)(Cl)Cl)C(NC(=O)c3ccccc3)c3ccccc3)C(C)=C1C2(C)C (stereo not shown) [Compound 13AA, 2′-{[(2,2,2-Trichloroethyl)-oxy]carbonyl}-7-deoxy-7-fluorotaxol]
- L1210 (IC50 μg/ml) [1]: 0.054 µg/mL

Structure (SMILES): CC(=O)OC1C(=O)C23CC2CC2OCC2(OC(C)=O)C3C(OC(=O)c2ccccc2)C2(O)CC(OC(=O)C(OC(=O)OCC(Cl)(Cl)Cl)C(NC(=O)c3ccccc3)c3ccccc3)C(C)=C1C2(C)C (stereo not drawn) [Compound 14AA, 2′-{[(2,2,2-Trichloroethyl)oxy]carbonyl}-7-deoxy-7β,8β-methanotaxol]
- L1210 (IC50 μg/ml) [1]: >0.1 µg/mL

Structure (SMILES): CC(=O)O[C@H]1C(=O)[C@@]2(C)[C@H]([C@H](OC(=O)c3ccccc3)[C@]3(O)C[C@H](OC(=O)[C@H](O)[C@@H](NC(=O)c4ccccc4)c4ccccc4)C(C)=C1C3(C)C)[C@]1(OC(C)=O)CO[C@@H]1C[C@@H]2O [Taxol]
- IC90 (90% growth inhibitory concentration) [2]: 0.06 micrograms/ml
- IC90 (90% growth inhibitory concentration) ([3]; A2780 (human ovarian carcinoma) cells in culture): 0.007 micrograms/ml
- L1210 (IC50 μg/ml) [1]: 0.015 µg/mL

Structure (SMILES): CC(=O)O[C@H]1C(=O)[C@]2(C)C(F)C[C@H]3OC[C@@]3(OC(C)=O)[C@H]2[C@H](OC(=O)c2ccccc2)[C@]2(O)CC(OC(=O)[C@H](O)[C@@H](NC(=O)c3ccccc3)c3ccccc3)C(C)=C1C2(C)C (stereo partly shown) [Compound IIIb, 7-Deoxy-7-fluorotaxol]
- potency relative to taxol in tubulin polymerization assay [4]: approximately half as potent as taxol
- induction of tubulin polymerization in vitro [4]: able to induce tubulin polymerization in vitro at 20 °C in a manner very similar to taxol
- IC90 ([3]; Homo sapiens, A2780, read-out: IC90 (90% growth inhibitory concentration)): 0.016 µg/mL (≈ 0.0187 µM)
- IC50 [1]: 0.01 µg/mL (≈ 0.0117 µM)

Structure (SMILES): CC(=O)O[C@H]1C(=O)C23C[C@@H]2CC2OC[C@@]2(OC(C)=O)C3[C@H](OC(=O)c2ccccc2)[C@]2(O)CC(OC(=O)C(OC(=O)OCC(Cl)(Cl)Cl)[C@@H](NC(=O)OC(C)(C)C)c3ccccc3)C(C)=C1C2(C)C (stereo partly drawn) [Compound 14DA, N-Debenzoyl-N-(t-butyl)oxycarbonyl-2′-{[(2,2,2-trichloroethyl)oxy]carbonyl}-7-deoxy-7β,8β-methanotaxol]
- IC50 [1]: 0.012 µg/mL (≈ 0.0119 µM)

Structure (SMILES): CC(=O)O[C@H]1C(=O)[C@@]23CC2C[C@H]2OC[C@@]2(OC(C)=O)[C@H]3[C@H](OC(=O)c2ccccc2)[C@]2(O)C[C@H](OC(=O)[C@H](O)[C@@H](NC(=O)NC(C)(C)C)c3ccccc3)C(C)=C1C2(C)C (stereo partly drawn) [Compound 29, N-debenzoyl-N-(t-butyl)aminocarbonyl-7-deoxy-7β,8β-methano-taxol]
- L1210 (IC50 μg/ml) [1]: 0.006 µg/mL

Structure (SMILES): CC(=O)O[C@H]1C(=O)[C@]23C[C@H]2C[C@H]2OC[C@@]2(OC(C)=O)[C@H]3[C@H](OC(=O)c2ccccc2)[C@]2(O)C[C@H](OC(=O)[C@H](O)[C@@H](NC(=O)OC(C)(C)C)c3ccccc3)C(C)=C1C2(C)C [Compound 23, N-Debenzoyl-N-(t-butyl)oxycarbonyl-7-deoxy-7β,8β-methanotaxol]
- L1210 (IC50 μg/ml) [1]: 0.0046 µg/mL

Structure (SMILES): CC(=O)OC1C(=O)C2(C)C(F)CC3OCC3(OC(C)=O)C2C(OC(=O)c2ccccc2)C2(O)CC(OC(=O)C(O)C(NC(=O)OC(C)(C)C)c3ccccc3)C(C)=C1C2(C)C (stereo not shown) [Compound 20, N-Debenzoyl-N-(t-butyl)oxycarbonyl-7-deoxy-7-fluorotaxol]
- L1210 (IC50 μg/ml) [1]: 0.0038 µg/mL

Structure (SMILES): CC(=O)OC1C(=O)C23CC2CC2OCC2(OC(C)=O)C3C(OC(=O)c2ccccc2)C2(O)CC(OC(=O)C(O)C(NC(=O)c3ccccc3)c3ccccc3)C(C)=C1C2(C)C (stereo not drawn) [Compound IIb, 7-Deoxy-7β,8β-methanotaxol]
- IC90 (90% growth inhibitory concentration) [2]: 0.025 micrograms/ml
- induction of tubulin polymerization in vitro [4]: able to induce tubulin polymerization in vitro at 20 °C in a manner very similar to taxol
- L1210 (IC50 μg/ml) [1]: 0.012 µg/mL

Structure (SMILES): CC(=O)O[C@@]12CO[C@@H]1C[C@H](O)[C@@]1(C)C(=O)[C@H](O)C3=C(C)[C@@H](OC(=O)[C@H](O)[C@@H](NC(=O)OC(C)(C)C)c4ccccc4)C[C@@](O)([C@@H](OC(=O)c4ccccc4)[C@H]21)C3(C)C [Taxotere, reference compound]
- IC50 [1]: 0.004 µg/mL (≈ 0.00495 µM)
